Where only a bound is given, the exact number is not on record here.

Experimental findings from patent publication US12624044B2, “SMARCA degraders and uses thereof” (Kymera Therapeutics, Inc., priority 2019, dated 2026) are described below.

The target in the test is SMARCA2 (Homo sapiens, UniProt P51531). The test is described as follows: MSD SMARCA2 degradation in NCI-H1299 cell line (24 h). As to conditions: for DC50: NCI-H1299 cells, read-out: SMARCA2 MSD H1299 degradation 24 h: External Abs-DC50; for Dmax: NCI-H1299, NCI-H1299 cells. Further details: HC: NCI-H1299 cells treated with DMSO; host or cells: NCI-H1299. The format is cell-based. On the procedure: Example 32. MSD SMARCA2 Degradation in […] Cell Line
SMARCA2, sequence (P51531 whole entry): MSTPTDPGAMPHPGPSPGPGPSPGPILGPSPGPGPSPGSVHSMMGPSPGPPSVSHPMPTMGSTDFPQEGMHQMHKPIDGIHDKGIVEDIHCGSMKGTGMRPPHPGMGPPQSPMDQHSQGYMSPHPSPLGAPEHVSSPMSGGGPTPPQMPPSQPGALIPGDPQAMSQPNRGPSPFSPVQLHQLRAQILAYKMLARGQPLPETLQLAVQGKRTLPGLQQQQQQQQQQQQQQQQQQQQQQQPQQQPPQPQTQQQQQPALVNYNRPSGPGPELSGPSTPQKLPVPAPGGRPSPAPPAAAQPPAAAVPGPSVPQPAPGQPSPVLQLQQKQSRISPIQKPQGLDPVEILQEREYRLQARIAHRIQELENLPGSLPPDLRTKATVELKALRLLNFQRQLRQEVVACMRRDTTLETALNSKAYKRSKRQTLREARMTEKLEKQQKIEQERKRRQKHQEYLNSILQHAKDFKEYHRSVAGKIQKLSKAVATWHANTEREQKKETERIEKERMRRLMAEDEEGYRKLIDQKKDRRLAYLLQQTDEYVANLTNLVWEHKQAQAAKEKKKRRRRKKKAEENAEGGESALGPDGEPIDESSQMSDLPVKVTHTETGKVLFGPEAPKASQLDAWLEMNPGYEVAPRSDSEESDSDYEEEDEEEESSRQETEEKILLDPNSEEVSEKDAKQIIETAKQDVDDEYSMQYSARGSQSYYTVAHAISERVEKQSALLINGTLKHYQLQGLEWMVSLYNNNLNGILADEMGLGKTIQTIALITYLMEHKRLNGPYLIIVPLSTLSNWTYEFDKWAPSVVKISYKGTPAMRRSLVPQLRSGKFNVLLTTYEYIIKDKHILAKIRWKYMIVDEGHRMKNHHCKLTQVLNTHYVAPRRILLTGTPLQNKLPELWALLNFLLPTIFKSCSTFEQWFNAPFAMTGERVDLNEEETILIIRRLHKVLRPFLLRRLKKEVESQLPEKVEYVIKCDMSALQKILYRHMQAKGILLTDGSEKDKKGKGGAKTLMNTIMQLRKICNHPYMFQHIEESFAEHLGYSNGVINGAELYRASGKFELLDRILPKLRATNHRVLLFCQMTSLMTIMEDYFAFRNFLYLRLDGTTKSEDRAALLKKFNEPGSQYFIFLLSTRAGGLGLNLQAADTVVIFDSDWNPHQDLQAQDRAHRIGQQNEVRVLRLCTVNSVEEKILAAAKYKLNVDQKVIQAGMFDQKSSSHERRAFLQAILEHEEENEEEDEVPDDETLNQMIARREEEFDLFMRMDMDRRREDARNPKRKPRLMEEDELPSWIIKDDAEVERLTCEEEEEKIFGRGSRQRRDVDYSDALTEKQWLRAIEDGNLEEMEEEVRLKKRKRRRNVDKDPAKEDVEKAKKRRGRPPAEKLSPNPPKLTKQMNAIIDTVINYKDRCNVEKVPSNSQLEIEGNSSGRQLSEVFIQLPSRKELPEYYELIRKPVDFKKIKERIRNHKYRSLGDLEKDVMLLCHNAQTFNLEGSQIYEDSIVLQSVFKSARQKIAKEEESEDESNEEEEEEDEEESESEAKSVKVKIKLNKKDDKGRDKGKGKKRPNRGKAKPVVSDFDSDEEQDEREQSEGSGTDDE
Cell Culture: Cells were cultured in exponential growth phase.
Compound Preparation and Treatment: NCI-H1299 cells were seeded into the 96-well plate at 4.0*10^4 cells per 100 ul per well. Incubate the plate in the incubator overnight. The next day, compounds were diluted to designed stock concentration by TECAN, then perform a 3 fold, 9-point dilution via transferring 15 uL compound into 30 μL DMSO using Apricot. 200 nL diluted compound from compound source plate were transferred into the 96-intermediate plate as designated by using Echo550, followed with 100 ul culture medium to make the 2× compound solution. Cell plate were changed with 80 ul of fresh culture medium and 80 ul of 2× compound solution was added into the well to achieve the final designed concentration. Cell plate was then shaken at 720 rpm for 5 min and incubated for 24 hours in the incubator.
Sample Preparation: Media was aspirated from the cultures and the plate was washed with PBS twice. 60 ul of pre-chilled PIPA lysis buffer (Boston BioProducts BP-115D) with protease inhibitor were directly added into the well to lyze the cells for 20 minutes at 4° C. Cell lysates were collected.
MSD Procedure: The MSD plate was coated with 40 ul cell lysate and incubated at 4° C. overnight. The next day, the MSD coated bare plate was washed 3 times with 150 ul 1×TBST per well, blocked with 150 ul of blocking buffer per well, and shaken for 1 hour at RT, 600 rpm. Blocking buffer was 3% Blocker A in TBST. MSD plate was then washed 3 times with 150 ul 1×TBST per well and Primary Detection antibody (Rabbit anti-SMARCA2/BRM antibody, 100 μg/ml, ab223735) was added to a final [conc.]: 0.3 ug/ml, 25 ul/well and shaken for 1 hour at RT, 600 rpm. Antibody was prepared in Antibody Detection buffer (1% Blocker A in 1×TBST). The MSD plate was then washed 3 times with 150 ul 1×TBST per well. Secondary Detection antibody (SULFO-TAG anti-species antibody) was then added to a final [conc.]: 1 ug/ml, 25 ul/well, and shaken for 1 hour at RT, 600 rpm. Antibodies were prepared in Antibody Detection buffer (1% Blocker A in 1×TBST). MSD plate was washed 3 times with 150 ul 1×TBST per well and 2×MSD reading buffer was added, 150 ul per well, and diluted from 4× with water. MSD instrument was then read.
Data Analysis: The percentage of relative level of SMARCA2 level was calculated following equation below.
LC: A2780, SMARCA2 negative cells. HC: NCI-H1299 cells treated with DMSO.
The letter codes for the percentage of SMARCA2 degradation after 24 hours (Dmax %) include: A (>90% degradation), B (>70-90 degradation), C (50-70 degradation), and D (<50% degradation).

Turning to `O=C1CCC(N2C(=O)c3cccc(OCCCc4cn(Cc5cccc(N6C[C@H]7C[C@@H]6CN7/C=C/C(=O)c6ccccc6O)n5)nn4)c3C2=O)C(=O)N1` (stereo partly drawn) [I-36, 2-(2,6-dioxo-3-piperidyl)-4-[3-[1-[[6-[(1R,4R)-5-[(E)-3-(2-hydroxyphenyl)-3-oxo-prop-1-enyl]-2,5-diazabicyclo[2.2.1]heptan-2-yl]-2-pyridyl]methyl]triazol-4-yl]propoxy]isoindoline-1,3-dione], the DC50 is more than 1000 nM.

In the case of `CN[C@@H](C)C(=O)N[C@H](C(=O)N1CCC[C@H]1c1nc(C(=O)c2cccc(OCCOCCOCCNCc3ccc(-c4cc(-c5ccccc5O)nnc4N)cc3)c2)cs1)C1CCCCC1` [I-198, (S)—N—((S)-2-((S)-2-(4-(3-(2-(2-(2-((4-(3-amino-6-(2-hydroxyphenyl)pyridazin-4-yl)benzyl)amino)ethoxy)ethoxy)ethoxy)benzoyl)thiazol-2-yl)pyrrolidin-1-yl)-1-cyclohexyl-2-oxoethyl)-2-(methylamino)propanamide], the Dmax was in the range of 50 to 70% and the DC50 is more than 1000 nM.

Consider `Cn1c(=O)n(C2CCC(=O)NC2=O)c2cccc(C#CCCCCc3cn(Cc4cccc(N5C[C@H]6C[C@@H]5CN6/C=C/C(=O)c5ccccc5O)n4)nn3)c21` (stereo partly drawn) [I-66], for which the Dmax was less than 50% and the DC50 was more than 1000 nM.

On to `Cn1c(=O)n(C2CCC(=O)NC2=O)c2cccc(CCCCCc3cn(Cc4cccc(N5C[C@H]6C[C@@H]5CN6/C=C/C(=O)c5ccccc5O)n4)nn3)c21` (stereo partly drawn) [I-50], for which the Dmax was less than 50% and the DC50 is more than 1000 nM.

Take `COc1cc(C(=O)NCCCCCCCCCNCc2ccc(N3CCN(c4cc(-c5ccccc5O)nnc4N)CC3)cc2)ccc1NC(=O)[C@@H]1N[C@@H](CC(C)(C)C)[C@](C#N)(c2ccc(Cl)cc2F)[C@H]1c1cccc(Cl)c1F` [I-235]: the Dmax is less than 50% and the DC50 is more than 1000 nM.

As for `O=C1CCC(n2c(=O)n(CCCCCc3cn(Cc4cccc(N5C[C@H]6C[C@@H]5CN6/C=C/C(=O)c5ccccc5O)n4)nn3)c3ccccc32)C(=O)N1` (stereo partly drawn) [I-55, 3-[3-[5-[1-[[6-[(1R,4R)-5-[(E)-3-(2-hydroxyphenyl)-3-oxo-prop-1-enyl]-2,5-diazabicyclo[2.2.1]heptan-2-yl]-2-pyridyl]methyl]triazol-4-yl]pentyl]-2-oxo-benzimidazol-1-yl]piperidine-2,6-dione], the Dmax was less than 50% and the DC50 was more than 1000 nM.

For the compound `Cn1c(=O)n(C2CCC(=O)NC2=O)c2ccc(CCCN3CCC(n4cc(-c5cc(-c6ccccc6O)nnc5N)cn4)CC3)cc21` (stereo not drawn) [I-182], the Dmax lay in the range of 50 to 70% and the DC50 lay in the range of 100 to 500 nM.

Take `CN[C@@H](C)C(=O)N[C@H](C(=O)N1Cc2cc(OCCOCCOCCOCCOCCNC(=O)CCCCCCCCOc3ccnc(N4C[C@H]5C[C@@H]4CN5/C=C/C(=O)c4ccccc4O)c3)ccc2C[C@H]1C(=O)N[C@@H]1CCCc2ccccc21)C(C)(C)C` [I-203]: the DC50 is more than 1000 nM.

As for `Cc1ncsc1-c1ccc(CNC(=O)[C@@H]2C[C@@H](O)CN2C(=O)[C@@H](NC(=O)CCCCCCCN2CCC(Cn3cc(-c4cc(-c5ccccc5O)nnc4N)cn3)CC2)C(C)(C)C)cc1` [I-217], the Dmax is more than 90% and the DC50 was more than 1000 nM.

Consider `Cc1ncsc1-c1ccc(CNC(=O)[C@@H]2C[C@@H](O)CN2C(=O)[C@@H](NC(=O)CCCCCN(C)Cc2ccc(N3CCN(c4cc(-c5ccccc5O)nnc4N)CC3)cc2)C(C)(C)C)cc1` [I-212, (2S,4R)-1-[(2S)-2-[6-[[4-[4-[3-amino-6-(2-hydroxyphenyl)pyridazin-4-yl]piperazin-1-yl]phenyl]methyl-methyl-amino]hexanoylamino]-3,3-dimethyl-butanoyl]-4-hydroxy-N-[[4-(4-methylthiazol-5-yl)phenyl]methyl]pyrrolidine-2-carboxamide], for which the Dmax was less than 50% and the DC50 is more than 1000 nM.

Consider `Cn1c(=O)n(C2CCC(=O)NC2=O)c2ccc(CCCCCCCN3CCC(Cn4cc(-c5cc(-c6ccccc6O)nnc5N)cn4)CC3)cc21` (stereo not drawn) [I-146], for which the Dmax lay within 70 to 90% and the half-maximal degradation concentration (DC50) is less than 100 nM.

`CN[C@@H](C)C(=O)N[C@H](C(=O)N1Cc2cc(OCCOCCOCCOCCOCCNC(=O)c3ccc(C(C)n4cc(-c5cc(-c6ccccc6O)nnc5N)cn4)cc3)ccc2C[C@H]1C(=O)N[C@@H]1CCCc2ccccc21)C(C)(C)C` (stereo partly drawn) [I-207]: the DC50 was more than 1000 nM.

On to `Cn1c(=O)n(C2CCC(=O)NC2=O)c2ccc(CCCCCCCCc3cnc(N4C5CCC4CN(c4cc(-c6ccccc6O)nnc4N)C5)nc3)cc21` (stereo not drawn) [I-89, 3-[5-[8-[2-[3-[3-amino-6-(2-hydroxyphenyl)pyridazin-4-yl]-3,8-diazabicyclo [3.2.1]octan-8-yl]pyrimidin-5-yl]octyl]-3-methyl-2-oxo-benzimidazol-1-yl]piperidine-2,6-dione], for which the Dmax was more than 90% and the DC50 was less than 100 nM.

In the case of `Cn1c(=O)n(C2CCC(=O)NC2=O)c2ccc(CCCCCCCCCCOc3cccc(CN4CCN(c5cc(-c6ccccc6O)nnc5N)CC4)c3)cc21` (stereo not drawn) [I-144], the Dmax is 50 to 70% and the DC50 is more than 1000 nM.

Regarding `Cc1ncsc1-c1ccc(CNC(=O)[C@@H]2C[C@@H](O)CN2C(=O)[C@@H](NC(=O)COCCOCCOCCOCCOCCOCCNC(=O)CCCCCCCCOc2ccnc(N3C[C@H]4C[C@@H]3CN4/C=C/C(=O)c3ccccc3O)c2)C(C)(C)C)cc1` [I-221], the DC50 was more than 1000 nM.

Take `Cn1c(=O)n(C2CCC(=O)NC2=O)c2ccc(CN3CCC(c4cnc(N5C6CCC5CN(c5cc(-c7ccccc7O)nnc5N)C6)nc4)CC3)cc21` (stereo not drawn) [I-196]: the Dmax was more than 90% and the DC50 was less than 100 nM.

`CN[C@@H](C)C(=O)N[C@H](C(=O)N1Cc2cc(OCCOCCOCCOCCNC(=O)CCCCCCCCOc3ccnc(N4C[C@H]5C[C@@H]4CN5/C=C/C(=O)c4ccccc4O)c3)ccc2C[C@H]1C(=O)N[C@@H]1CCCc2ccccc21)C(C)(C)C` [I-204]: the DC50 is more than 1000 nM.

`Cn1c(=O)n(C2CCC(=O)NC2=O)c2ccc(CN3CC(OCCCN4CCN(Cc5ccc(-c6cc(-c7ccccc7O)nnc6N)cc5)CC4)C3)cc21` (stereo not drawn) [I-156]: the Dmax is 50 to 70% and the DC50 was more than 1000 nM.

Regarding `Cn1c(=O)n(C2CCC(=O)NC2=O)c2ccc(CCCCCCCCc3cccc(CN4CCN(c5cc(-c6ccccc6O)nnc5N)CC4)c3)cc21` (stereo not drawn) [I-152, 3-(5-(8-(3-((4-(3-amino-6-(2-hydroxyphenyl)pyridazin-4-yl)piperazin-1-yl)methyl)phenyl)octyl)-3-methyl-2-oxo-2,3-dihydro-1H-benzo[d]imidazol-1-yl) piperidine-2,6-dione], the Dmax is less than 50% and the DC50 is more than 1000 nM.

With `Cn1c(=O)n(C2CCC(=O)NC2=O)c2ccc(CNCCc3cn(Cc4cccc(N5C[C@H]6C[C@@H]5CN6/C=C/C(=O)c5ccccc5O)n4)nn3)cc21` (stereo partly drawn) [I-73], the Dmax is less than 50% and the DC50 is more than 1000 nM.

Regarding `Cn1c(=O)n(C2CCC(=O)NC2=O)c2cccc(C#CCN3CCO[C@H](CNCc4ccc(N5CCN(c6cc(-c7ccccc7O)nnc6N)CC5)cc4)C3)c21` (stereo partly drawn) [I-118], the Dmax is less than 50% and the DC50 is more than 1000 nM.

Regarding `Cn1c(=O)n(C2CCC(=O)NC2=O)c2ccc(CCCCCCCCCOc3cccc(CN4CCN(c5cc(-c6ccccc6O)nnc5N)CC4)c3)cc21` (stereo not drawn) [I-143], the Dmax was less than 50% and the DC50 is more than 1000 nM.

For the compound `CN(CC#Cc1cnc(N2C3CCC2CN(c2cc(-c4ccccc4O)nnc2N)C3)nc1)CCCc1ccc2c(c1)n(C)c(=O)n2C1CCC(=O)NC1=O` (stereo not drawn) [I-195, 3-[5-[3-[3-[2-[3-[3-amino-6-(2-hydroxyphenyl)pyridazin-4-yl]-3,8-diazabicyclo[3.2.1]octan-8-yl]pyrimidin-5-yl]prop-2-ynyl-methyl-amino]propyl]-3-methyl-2-oxo-benzimidazol-1-yl]piperidine-2,6-dione], the Dmax is more than 90% and the DC50 is less than 100 nM.

In the case of `Cn1c(=O)n(C2CCC(=O)NC2=O)c2cccc(CCCCCCCCCN3CCC(Cn4cc(-c5cc(-c6ccccc6O)nnc5N)cn4)CC3)c21` (stereo not drawn) [I-151], the Dmax was more than 90% and the DC50 is 100 to 500 nM.

For `O=C1CCC(N2C(=O)c3cccc(OCCc4cn(CCCc5cccc(N6C[C@H]7C[C@@H]6CN7/C=C/C(=O)c6ccccc6O)n5)nn4)c3C2=O)C(=O)N1` (stereo partly drawn) [I-69], the Dmax was less than 50% and the DC50 is more than 1000 nM.

The DC50 is the midpoint of the concentration-degradation curve. A word on the Dmax: it is the greatest extent of degradation seen.
